Experimental data taken from ChEMBL document CHEMBL1128169, “Thiourea analogues of resiniferatoxin as ligands for the vanilloid receptor” (Bioorg Med Chem Lett, 1995).

Target: Transient receptor potential cation channel subfamily V member 1 (Homo sapiens, UniProt Q8NER1)
Assay: Displacement of [3H]RTX binding from vanilloid receptor

Chain of Transient receptor potential cation channel subfamily V member 1 (Q8NER1 whole entry): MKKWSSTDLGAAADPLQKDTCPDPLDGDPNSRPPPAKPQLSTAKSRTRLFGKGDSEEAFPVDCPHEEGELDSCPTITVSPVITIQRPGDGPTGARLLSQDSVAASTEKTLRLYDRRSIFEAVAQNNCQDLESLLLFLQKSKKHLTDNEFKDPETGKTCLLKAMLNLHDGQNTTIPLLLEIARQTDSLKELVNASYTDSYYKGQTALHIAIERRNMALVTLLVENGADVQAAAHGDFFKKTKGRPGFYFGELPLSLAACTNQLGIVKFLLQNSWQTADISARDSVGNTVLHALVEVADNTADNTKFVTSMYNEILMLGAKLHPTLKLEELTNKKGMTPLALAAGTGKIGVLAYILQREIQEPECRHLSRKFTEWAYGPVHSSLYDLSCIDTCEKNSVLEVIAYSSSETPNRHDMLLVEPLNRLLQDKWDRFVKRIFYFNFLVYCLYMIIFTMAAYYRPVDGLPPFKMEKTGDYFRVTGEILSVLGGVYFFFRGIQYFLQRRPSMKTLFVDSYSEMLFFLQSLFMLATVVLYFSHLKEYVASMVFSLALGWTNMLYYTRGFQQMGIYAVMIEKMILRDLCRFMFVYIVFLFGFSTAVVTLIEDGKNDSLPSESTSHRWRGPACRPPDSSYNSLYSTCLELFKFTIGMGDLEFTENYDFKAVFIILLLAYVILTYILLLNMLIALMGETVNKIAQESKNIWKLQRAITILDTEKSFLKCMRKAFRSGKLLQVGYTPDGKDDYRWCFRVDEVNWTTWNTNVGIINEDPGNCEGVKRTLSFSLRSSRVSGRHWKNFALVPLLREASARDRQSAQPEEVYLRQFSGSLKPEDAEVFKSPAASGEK

Compound	Ki [nM]
C=C(C)[C@]12C[C@@H](C)[C@@]34O[C@](Cc5ccccc5)(O[C@@H]1[C@@H]3C=C(COC(=O)Cc1ccc(O)c(OC)c1)C[C@]1(O)C(=O)C(C)=CC41)O2 (single isomer, unassigned) [RESINIFERATOXIN]	23.1
C=C(C)[C@]12C[C@@H](C)[C@@]34OC(Cc5ccccc5)(O[C@@H]1[C@@H]3C=C(CNC(=S)NCc1ccc(O)c(OC)c1)C[C@]1(O)C(=O)C(C)=C[C@@H]41)O2	149
C=C(C)[C@]12C[C@@H](C)[C@@]34OC(Cc5ccccc5)(O[C@@H]1[C@@H]3C=C(C/N=C(\S)Nc1ccc(O)c(OC)c1)C[C@]1(O)C(=O)C(C)=C[C@@H]41)O2	66.1
